Legend:
Cbl-b [1] = assay: Cbl-b protein by immunoblot after stimulation of primary human NK cells with cytokines or activating antibody; assay type: cell-based; conditions: primary human NK cells, 24 h cytokine stimulation, compared to resting NK cells without cytokines
Method: (FIG. 1B) Enriched primary human NK cells were co-cultured with the K562 myeloid leukemia cell line (E/T ratio=10:1) for 24 h followed by immunoblot analysis. Summary data are from three independent experiments. (FIG. 1C) Primary human NK cells were treated with different concentrations of IL-15 for 24 h followed by immunoblot analysis (n=5 donors). (FIG. 1D) Equal numbers of purified CD56^+ human NK cells, CD56^bright NK cells and CD56^dim NK cells were sorted from peripheral blood mononuclear cells isolated by Ficoll, cultured and stimulated with IL-15 (20 ng/ml for 24 h) followed by immunoblot analysis. The data are representative of three independent experiments. Med, medium only; *P<0.05, **P<0.01 by two-tailed unpaired t-test or One-way ANOVA; ns, not significant. Data are presented as mean±SEM.
FIG. 6A Enriched primary human NK cells were cocultured with Molm-13 or MV4-11 leukemia cell lines (E/T ratio=10:1) for 24 h prior to assessment of Cbl-b by immunoblot analysis. […] FIG. 6B Enriched primary human NK cells were cultured overnight with an anti-NKG2D activating antibody (clone 1D11) (10 μg/ml) or mouse IgG (10 μg/ml) as control prior to assessment of Cbl-b by immunoblot analysis. […] Data are shown summarizes four independent experiments. […] Data are shown summarizes five independent experiments. FIG. 6E The expression of Cbl-b was assessed by qRT-PCR after primary human NK cells were incubated with K562 cells (E/T ratio=10:1) for 24 h. Data are shown summarizes five independent experiments. *P<0.05, **P<0.01, compared to the shortest time point. Data are presented as mean±SEM.
(§1) Immunoblotting. Cells were harvested and suspended in RIPA lysis buffer (Thermo Fisher Scientific) on ice for 20 minutes. Equal amount of protein was resolved by 5-15% Criterion TGX gel (Bio-Rad) and then transferred onto a Nitrocellulose (NC) or PVDF membrane (Thermo Fisher Scientific). The membrane was incubated with a primary antibody at 4° C. overnight and an IRDye secondary antibody (Li-COR Biosciences) for 1 hour at room temperature. The immunoblots were visualized with Odyssey CLx Imager (Li-COR Biosciences). Densitometric analysis was performed to quantify intensity of gel bands with Image J (National Institutes of Health).
We assessed the expression of Cbl-b protein in primary human NK cells enriched from the blood of healthy donors in response to 24-hour stimulation by different cytokines. […] Since certain tumor cells can trigger NK cell activation, we co-cultured NK cells for 24 h with different tumor cell lines in order to assess this effect on the expression of Cbl-b.

Cbl-b [2] = assay: Cbl-b protein by immunoblot after JAK or AKT inhibitor pretreatment and IL-15/IL-2 activation of primary NK cells; assay type: cell-based, human; conditions: 90 min pretreatment at various concentrations, then IL-15 (10 ng/ml) 24 h, vs vehicle control
Method: FIGS. 2A-2E depict the results of a study showing that JAK-STAT and AKT pathways mediate upregulation of Cbl-b in NK cells. (FIG. 2A) Primary human NK cells were pretreated with the JAK3 inhibitor CP-690550 and the JAK1/2 inhibitor AZD1480 at various concentrations for 90 min prior to a 24 h activation by IL15 (10 ng/ml). NK cells were then harvested for quantification of Cbl-b protein expression by immunoblot analysis. Data are representative of 6 donors performed in a similar fashion. Densitometric quantification assessing the ratio of the Cbl-b protein to β-actin protein levels for 6 donors is summarized in (FIG. 2B) and (FIG. 2C). […] Data are representative of 5 donors performed in a similar fashion. Densitometric quantification assessing the ratio of the Cbl-b protein levels to β-actin protein levels for 5 donors is summarized in (FIG. 2E). *P<0.05, **P<0.01, ***P<0.001 by One-way ANOVA or Student's two-tailed paired t-test. Data are presented as mean±SEM.
as §1
(§2) Since IL-15 utilizes select JAK-STAT proteins to initiate cellular activation, we pretreated primary NK cells with the JAK3 inhibitor CP-690550 (22) or the JAK1/2 inhibitor AZD1480 (23) in increasing concentrations prior to IL-15 stimulation then Cbl-b expression level was evaluated. […] As K562 cells were also able to induce expression of Cbl-b in primary human NK cells (FIG. 1B), we repeated the inhibitor experiments under the K562 cell stimulation.

Cbl-b [3] = assay: Cbl-b protein by immunoblot after inhibitor pretreatment and K562 co-culture of primary NK cells; assay type: cell-based, human; conditions: 10 uM, 90 min pretreatment, 24 h co-culture with K562 (E/T=10:1), vs vehicle control
Method: FIG. 7A Primary NK cells were pretreated with AZD1480 (10 uM), CP-690550 (10 uM) or Afuresertib (10 uM) for 90 min prior to a 24 h cocultured with K562 cells (E/T=10:1). The immunoblot data are representative of 3 donors in a similar fashion. Densitometric quantification assessing the ratio of Cbl-b protein levels to β-actin protein levels for 3 donors is summarized in FIG. 7B. *P<0.05, **P<0.01; ns, not significant. Data are presented as mean±SEM.
as §1, §2

granzyme B = assay: Granzyme B protein in supernatants by ELISA; assay type: cell-based, human
Method: FIGS. 3A-3E depict the results of a study showing that downregulation of Cbl-b enhances the cytotoxicity of primary human NK cells. (FIGS. 3A and 3B) Primary human NK cells transduced with Cbl-b siRNA or Scr siRNA for 24 h were stimulated without (FIG. 3A) or with (FIG. 3B) a low concentration of IL-15 (2 ng/ml) for 16 h, then co-cultured with ^51Cr labeled Molm-13, MV4-11 or EOL-1 leukemia cell lines for 4 h, followed by quantification of specific tumor cell lysis. Each experiment was repeated with 6 different normal donors. (FIG. 3C) qRT-PCR was performed to quantify the granzyme B (GZMB) mRNA levels (n=8 donors) in siRNA- and Scr siRNA-transduced primary human NK cells incubated without or with IL-15 (10 ng/ml) for 16 h. (FIG. 3D) The concentration of the granzyme B protein in the supernatants of Cbl-b siRNA- and Scr siRNA-transduced primary human NK cells incubated without (688.1 pg/ml vs 525.4 pg/ml; P=0.0232) or with IL-15 (10 ng/ml) for 24 h (8789 pg/ml vs 3397 pg/ml; P=0.0232) was measured by ELISA (n=8 donors). (FIG. 3E) The level of granzyme B protein in Cbl-b siRNA- and Scr siRNA-transduced primary human NK cells incubated without or with IL-15 (10 ng/ml) for 24 h was measured by immunoblot analysis. The data are representative of three experiments. Scr-scrambled; *P<0.05, **P<0.01, ***P<0.001, ****P<0.0001 by One-way or Two-way ANOVA; ns, not significant. Data presented as mean±SEM.
(§3) ELISA. Primary NK cells were plated in an equivalent number of 100,000 cells/well in a 96-well plate in RPMI and supplemented with 10% FBS. Cells were treated with recombinant human IL-15 (10 ng/ml) for 24 h, and cell-free culture supernatant was collected and frozen at −80° C. for later use. IFN-γ concentration was measured by ELISA using anti-IFN-γ antibody from Thermo Fisher Scientific. Granzyme B concentration was measured by ELISA kit purchased from R&D.
Both groups were next incubated without or with IL-15 and co-cultured with ^51Cr labeled MV4-11, Molm-13, or EOL-1 leukemia cell lines, followed by assessment of specific lysis measured after 4 h of co-culture.

IFN-γ [4] = assay: Intracellular IFN-γ flow cytometry of siRNA-transduced NK cells; assay type: cell-based, human; conditions: IL-15 (10 ng/ml) 24 h, n=5 donors
Method: (§4) FIGS. 4A-4D depict the results of a study showing that downregulation of Cbl-b increases IFN-γ secretion in IL-15-activated primary human NK cells. (FIG. 4A) RNAseq was conducted using primary human NK cells transduced with either Cbl-b siRNA or Scr siRNA without or with incubation in IL-15 (10 ng/ml) for 16 h (4 donors for each group). […] (FIG. 4B) qRT-PCR was performed to quantify the mRNA levels of IFN-γ (n=6 donors) after IL-15 (10 ng/ml) 6 h stimulation. (FIG. 4C) The percentage of intracellular IFN-γ+ cells in un-transduced NK cells or those transduced with Cbl-b siRNA or Scr siRNA, each activated with IL-15 (10 ng/ml) for 24 h (11.5% vs 4.338%; P=0.0008; n=5 donors). (FIG. 4D) Supernatants were collected after IL-15 (10 ng/ml) for 24 h and IFN-γ concentrations measured by ELISA (18115 pg/ml vs 882.5 pg/ml; P=0.0099; n=7 donors). Scr-scrambled; *P<0.05, **P<0.01, ***P<0.001 by Student's two-tailed paired t-test or One-way ANOVA; ns, not significant. Data presented as mean±SEM.
FIGS. 9B-9D show intracellular flow cytometric analysis of CD56+ primary human NK cells transduced with Scr siRNA or transduced with Cbl-b siRNA, incubated with IL-18 (10 ng/ml), IL-12 (10 ng/ml) or IL-18 (10 ng/ml) plus IL-12 (10 ng/ml) for 24 h. Scr, scrambled; *P<0.05, ns, not significant. Data are presented as mean±SEM.
Flow cytometry. To determine protein cell surface expression via flow cytometry, cells were stained with monoclonal antibodies at room temperature for 20 minutes and washed with FACS buffer prior to analysis using a Fortessa X-20 flow cytometer (BD Biosciences). For IFN-γ intracellular flow cytometric analysis, […] GolgiPlug (BD Biosciences) was added for 4 h before cell harvest; cells were then permeabilized and fixed using a Cytofix/Cytoperm Fixation/Permeabilization Solution Kit (BD Biosciences), followed by analysis with a Fortessa X-20 flow cytometer. Intracellular flow cytometric analysis of Mertk was performed similarly except that GolgiPlug was not added. Data was analyzed by using Flowjo V10 software (Tree Star, Ashland, OR, USA).
(§5) To further explore how Cbl-b regulates the functions of primary human NK cells, we performed RNA-seq analyses using enriched primary NK cells from healthy donors transduced with Cbl-b siRNA or Scr siRNA without or with IL-15 treatment for 16 h (n=4 in each group). […] The intracellular results were supported by assessment IFN-γ secretion into the supernatant, in that IL-15-activated primary human NK cells transduced with Cbl-b siRNA expressed 10-fold higher levels of IFN-γ compared to NK cells transduced with Scr siRNA (FIG. 4D).

IFN-γ [5] = assay: IFN-γ in supernatants by ELISA; assay type: cell-based, human; conditions: IL-15 (10 ng/ml) 24 h, n=7 donors
Method: as §4, §3, §5

Molecule: IL-21: Recombinant human IL-21 purchased from Miltenyi Biotec
- expression of Cbl-b protein (ratio to β-actin) (Cbl-b [1]): no significant change

Molecule: IL-18: Recombinant human IL-18 purchased from Miltenyi Biotec
- expression of Cbl-b protein (ratio to β-actin) (Cbl-b [1]): no significant change

Molecule: Cc1cc(Nc2nc(N[C@@H](C)c3ncc(F)cn3)ncc2Cl)n[nH]1 [AZD1480]
- expression of Cbl-b protein after inhibitor pretreatment (Cbl-b [2]): significant decrease
- Cbl-b expression after inhibitor pretreatment under K562 stimulation (Cbl-b [3]): only the AKT1/2/3 inhibitor Afuresertib rather than either of the two JAK inhibitors

Molecule: Scr siRNA: scrambled Accell siRNA control, SEQ ID NO:2, UGGUUUACAUGUUGUGUGA (Accell modifications, chemistry not fully specified) [reference compound]
- concentration of granzyme B protein in supernatants (granzyme B; with IL-15 (10 ng/ml) 24 h, n=8 donors): 3397 pg/mL
- concentration of granzyme B protein in supernatants (granzyme B; without IL-15, n=8 donors): 525.4 pg/mL
- percentage of intracellular IFN-γ+ cells (IFN-γ [4]): 4.338%
- IFN-γ concentration in supernatants (IFN-γ [5]): 882.5 pg/mL

B1: IL-7: Recombinant human IL-7 purchased from Miltenyi Biotec (protein, UniProt P13232 26-177, looked up)
Interleukin-7: DCDIEGKDGKQYESVLMVSIDQLLDSMKEIGSNCLNNEFNFFKRHICDANKEGMFLFRAARKLRQFLKMNSTGDFDLHLLKVSEGTTILLNCTGQVKGRKPAALGEAQPTKSLEENKSLKEQKKLNDLCFLKRLLQEIKTCWNKILMGTKEH
- expression of Cbl-b protein (ratio to β-actin) (Cbl-b [1]): no significant change

B2: IL-12: Recombinant human IL-12 purchased from Miltenyi Biotec (protein, UniProt P29459 23-219; P29460 23-328, looked up)
Interleukin-12 subunit alpha: RNLPVATPDPGMFPCLHHSQNLLRAVSNMLQKARQTLEFYPCTSEEIDHEDITKDKTSTVEACLPLELTKNESCLNSRETSFITNGSCLASRKTSFMMALCLSSIYEDLKMYQVEFKTMNAKLLMDPKRQIFLDQNMLAVIDELMQALNFNSETVPQKSSLEEPDFYKTKIKLCILLHAFRIRAVTIDRVMSYLNAS
Interleukin-12 subunit beta: IWELKKDVYVVELDWYPDAPGEMVVLTCDTPEEDGITWTLDQSSEVLGSGKTLTIQVKEFGDAGQYTCHKGGEVLSHSLLLLHKKEDGIWSTDILKDQKEPKNKTFLRCEAKNYSGRFTCWWLTTISTDLTFSVKSSRGSSDPQGVTCGAATLSAERVRGDNKEYEYSVECQEDSACPAAEESLPIEVMVDAVHKLKYENYTSSFFIRDIIKPDPPKNLQLKPLKNSRQVEVSWEYPDTWSTPHSYFSLTFCVQVQGKSKREKKDRVFTDKTSATVICRKNASISVRAQDRYYSSSWSEWASVPCS
- expression of Cbl-b protein (ratio to β-actin) (Cbl-b [1]): no significant change
